Assay results from US20210347728A1, “4,5-DIHYDROXY-2-(4-METHYLBENZYL)ISOPHTHALONITRILE SOLVATES AND CRYSTALLINE FORMS THEREOF” (Orion Corporation, priority 2018, published 2021).

Test: Stability and conversion of crystalline forms with relative humidity
Assay type: physicochemical
Settings: humidity range not specified

SMILES: Cc1ccc(Cc2c(C#N)cc(O)c(O)c2C#N)cc1 [Form II monohydrate, 4,5-dihydroxy-2-(4-methylbenzyl)isophthalonitrile monohydrate]
- stability of the crystalline form with humidity: stable within a reasonable humidity range
